What was measured:
[1] = cited from earlier work
[2] = Thermostability test of preparation, Test Example 1 (60° C., HPLC); type: physicochemical; settings: for Residual ratio(%) of α-lipoic acid: 60° C.
Protocol: The α-lipoic acid-MgCO3 nanoparticles produced in Example 1A, and the α-lipoic acid nanoparticles produced in Comparative Example 1A without adding magnesium chloride and sodium carbonate were respectively heated at 60° C., and the amounts of α-lipoic acid in the sample after one hour of heating and after 3 hours of heating were analyzed by HPLC. As a control, a reagent α-lipoic acid was used. The amount of α-lipoic acid after heating was divided by the amount of α-lipoic acid before heating, and the result was multiplied by 100 such that the residual ratio of α-lipoic acid was calculated. Symbol Δ represents the results of control reagent of α-lipoicacid, symbol ▪ represents the results of the α-lipoic acid dispersion liquid of Comparative Example 1, and symbol □ represents the results of the α-lipoic acid-MgCO3 nanoparticles of Example 1A.

[3] = Improvement in sulfurous odor, Test Example 2 (left indoors under sunlight); type: physicochemical; settings: 0.1% α-lipoic acid in water, after two weeks
From the text: The paste after freeze-drying of the α-lipoic acid-MgCO3 nanoparticles produced in Example 1A, and the paste after freeze-drying of the α-lipoic acid nanoparticles produced in Comparative Example 1A without adding magnesium chloride and sodium carbonate, were respectively dispersed in distilled water such that the final concentration of α-lipoic acid reached 0.1%. The dispersions were placed in transparent test tubes made of resin, and the test tubes were left to stand indoors under sunlight. As a control, an aqueous dispersion liquid having α-lipoic acid dissolved in water (final concentration of α-lipoic acid 0.1%), which was prepared by adding an alkali (5M NaOH) to reagent α-lipoic acid, and thereby adjusting the pH to 7 to 7.5, was also left to stand in the same manner.

[4] = system: 3T3-L1 cells; experiment: Differentiation of preadipocytes, lipid accumulation by Oil Red O, Test Example 7; type: cell-based; settings: added to adipocyte differentiation induction medium, 100, 250 or 500 μM α-lipoic acid, 4 days; nanoparticles of Example 20A
Protocol: 1.5 ml of D-MEM medium (D-MEM medium supplemented with 10% FCS, 100 units/ml of penicillin, and 100 μg/ml of streptomycin, all at final concentrations) was added to a plastic petri dish having a diameter of 3.5 cm. To this, 5.0×10^4 cells of 3T3-L1 cells, which are preadipocytes, were suspended, and precultured for 3 days to result in a confluent state. Thereafter, the medium was replaced with 3 ml of an adipocyte differentiation induction medium (D-MEM supplemented with 10% FCS, 100 units/ml of penicillin, 100 μg/ml of streptomycin, 5 μg/ml of insulin, 0.25 μM of dexamethasone, and 0.5 mM of isobutyl-methylxanthine (IBMX), all at final concentrations). After another 2 days, the medium was replaced with 3 ml of the adipocyte differentiation induction medium of the same composition, and then the culturing was carried out for 2 days. Thus, the culturing in the adipocyte differentiation induction medium was carried out for 4 days in total. During this culturing, an α-lipoic acid solution or the α-lipoic acid-MgCO3 nanoparticle solution of Example 20A was added to the adipocyte differentiation induction medium to result in 0, 100, 250 or 500 μM of α-lipoic acid concentration. […]
The amount of accumulated lipids in the cultured cells thus obtained was measured. […] The whole amount of this solution was recovered, and the absorbance at a wavelength of 520 nm was measured with a spectrophotometer.

[5] = system: 3T3-L1 cells; experiment: Dedifferentiation of mature adipocytes, lipid accumulation by Oil Red O, Test Example 8; type: cell-based; settings: added to adipocyte maturation medium, 100, 250 or 500 μM α-lipoic acid, 4 days; nanoparticles of Example 20A
Protocol: 1.5 ml of D-MEM medium (D-MEM medium supplemented with 10% FCS, 100 units/ml of penicillin, and 100 μg/ml of streptomycin, all at final concentrations) was added to a plastic petri dish having a diameter of 3.5 cm. To this, 5.0×10^4 cells of 3T3-L1 cells, which are preadipocytes, were suspended, and precultured for 3 days to result in a confluent state. Thereafter, the medium was replaced with 3 ml of an adipocyte differentiation induction medium (D-MEM medium supplemented with 10% FCS, 100 units/ml of penicillin, 100 μg/ml of streptomycin, 5 μg/ml of insulin, 0.25 μM of dexamethasone, and 0.5 mM of isobutyl-methylxanthine, all at final concentrations), and the culturing was carried out for 4 days to induce the differentiation into adipocytes. Thereafter, the medium was replaced with an adipocyte maturation medium (D-MEM medium supplemented with 10% FCS, 100 units/ml of penicillin, 100 μg/ml of streptomycin, and 5 μg/ml of insulin, all at final concentrations), and the culturing was carried out for 7 days. Thereafter, the medium was replaced with a test medium, and culturing was carried out for another 4 days. […]
The amount of accumulated lipids in the cultured cells thus obtained was measured. […] The total amount of this solution was recovered, and the absorbance at a wavelength of 520 nm was measured with a spectrophotometer.

| Residual ratio(%) of α-lipoic acid ([2]; heating time 0 hrs) [%] | Residual ratio(%) of α-lipoic acid ([2]; heating time 1 hr) [%] | Residual ratio(%) of α-lipoic acid ([2]; heating time 3 hrs) [%] | reduction of the amount of α-lipoic acid ([2]; after 3 hours of heating at 60° C.) | Compound | pKa value [1] | sulfurous odor [3] | accumulation of lipids in cells (Oil Red O, 520 nm) [4] | amount of lipid accumulation in mature adipocytes (Oil Red O, 520 nm) [5] |
| --- | --- | --- | --- | --- | --- | --- | --- | --- |
| – | – | – | – | CC1=C(/C=C/C(C)=C/C=C/C(C)=C/C(=O)O)C(C)(C)CCC1 [retinoic acid] | 6.4 | – | – | – |
| 100 | 50.51 | 44.20 | about 55% | O=C(O)CCCCC1CCSS1 (stereo not drawn) [α-lipoic acid] | 4.76 | characteristic sulfurous odor strongly emanated | reduction of the accumulation of lipids | almost indifferent from that of the non-added group |
